Data as given in patent US10143740B2, “Inactivating pathogens with oxidizing agents for vaccine production” (priority 2005, dated 2018).
Read-outs that look alike come from different tables or passages of the source.

Key:
[1] = tested on: lymphocytic choriomeningitis virus (LCMV)
[2] = mouse, in vivo; cited from earlier work
[3] = rats, inhalation; cited from earlier work
[4] = in vitro and in vivo; cited from earlier work

OO [H2O2, hydrogen peroxide]
H2O2 concentration after which no infectious virus could be detected (vaccinia virus): ≤ 0.03% | viral titer after treatment (vaccinia virus): reduced to below the limit of detection | H2O2 concentration at which infectivity is eliminated [1]: < 0.1% | viral titer after treatment [1]: reduced to below the limit of detection | viral titer after treatment (yellow fever virus (YFV)): reduced to below the limit of detection | viral titer after treatment (West Nile virus (WNV)): reduced to below the limit of detection | viral titer after treatment (monkeypox virus (MPV)): reduced to below the limit of detection

O=C1CCO1 [betapropiolactone]
carcinogenicity [2]: produce squamous cell carcinomas, lymphomas and hepatomas

C=O [formaldehyde]
carcinogenicity [3]: induces squamous-cell carcinoma of the nasal cavity | genotoxicity [4]: genotoxic in vitro and in vivo
